Experimental data reported in US20240158446A1, “CYCLIC COMPOUND HAVING SELECTIVE INHIBITORY ACTION ON KRAS OVER HRAS AND NRAS” (CHUGAI SEIYAKU KABUSHIKI KAISHA, priority 2021, published 2024).

Columns and labels:
[1] = target: GDP-bound HRAS wild-type protein (Homo sapiens, UniProt P01112); assay: Binding to HRAS by surface plasmon resonance (SPR), Single Cycle Kinetics; conditions: SPR KD ratio HRAS/KRAS, class symbols
[2] = target: GDP-bound NRAS wild-type protein (Homo sapiens, UniProt P01111); assay: Binding to NRAS by surface plasmon resonance (SPR), Single Cycle Kinetics; conditions: SPR KD ratio NRAS/KRAS, class symbols
Chain of GDP-bound NRAS wild-type protein (P01111 whole entry): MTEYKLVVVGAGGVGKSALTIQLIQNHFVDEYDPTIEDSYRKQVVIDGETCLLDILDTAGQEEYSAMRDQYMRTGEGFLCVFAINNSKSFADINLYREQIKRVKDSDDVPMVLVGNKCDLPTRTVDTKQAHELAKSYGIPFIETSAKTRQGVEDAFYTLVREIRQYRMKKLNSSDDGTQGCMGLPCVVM

Chain of GDP-bound HRAS wild-type protein (P01112 whole entry): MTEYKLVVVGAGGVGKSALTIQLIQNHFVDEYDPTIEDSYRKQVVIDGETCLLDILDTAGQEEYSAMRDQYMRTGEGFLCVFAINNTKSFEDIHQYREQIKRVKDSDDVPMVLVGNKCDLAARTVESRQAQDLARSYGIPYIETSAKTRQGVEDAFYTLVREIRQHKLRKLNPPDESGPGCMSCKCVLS

| SMILES | HRAS/KRAS (ratio of KD value with respect to GDP-bound HRAS wild-type protein to KD value with respect to KRAS) [1] | NRAS/KRAS (ratio of KD value with respect to GDP-bound NRAS wild-type protein to KD value with respect to KRAS) [2] |
| --- | --- | --- |
| CCC(CC)[C@H]1C(=O)N(C)[C@H](C(=O)N(C)C)CC(=O)N(C)[C@@H](COC)C(=O)N[C@@H]([C@@H](C)CC)C(=O)N(C)CC(=O)N(C)[C@H]2C/C=C\CCN(C2=O)[C@@H](Cc2ccc(C)cc2)C(=O)N(C)CC(=O)N[C@@H](CCc2ccc(Cl)c(Cl)c2)C(=O)N2C[C@H](OC(C)C)C[C@H]2C(=O)N(C)C2(CC(C)(C)C2)C(=O)N1C [PP2814] | A (a compound having 10 or more and less than 20 is denoted as A) | AA (a compound having 20 or more is denoted as AA) |
| CCO[C@@H]1C[C@H]2C(=O)NC3(CCC3)C(=O)N(C)[C@@H](C3CCCC3)C(=O)N(C)[C@H](C(=O)N(C)CC)CC(=O)N(C)[C@@H](CC3CCC3)C(=O)N[C@@H]([C@@H](C)CC)C(=O)N(C)CC(=O)N(C)[C@H]3C/C=C\CCN(C3=O)[C@@H](Cc3ccc(C(F)(F)F)cc3)C(=O)N(C)CC(=O)N[C@@H](CCc3ccc(Cl)c(Cl)c3)C(=O)N2C1 [PP2824] | A (a compound having 10 or more and less than 20 is denoted as A) | A (a compound having 10 or more and less than 20 is denoted as A) |
| CCCOC[C@H]1C(=O)N[C@@H]([C@@H](C)CC)C(=O)N(C)CC(=O)N(C)[C@H]2C/C=C\CCN(C2=O)[C@@H](Cc2ccc(C(F)(F)F)cc2)C(=O)N(C)CC(=O)N[C@@H](CCc2ccc(Cl)c(Cl)c2)C(=O)N2C[C@H](OCC)C[C@H]2C(=O)NC2(CCC2)C(=O)N(C)[C@@H](C2CCCC2)C(=O)N(C)[C@H](C(=O)N(C)CCC)CC(=O)N1C [PP2830] | A (a compound having 10 or more and less than 20 is denoted as A) | A (a compound having 10 or more and less than 20 is denoted as A) |
| CCCC[C@H]1C(=O)N[C@@H]([C@@H](C)CC)C(=O)N(C)CC(=O)N(C)[C@H]2C/C=C\CCN(C2=O)[C@@H](Cc2ccc(C(F)(F)F)cc2)C(=O)N(C)CC(=O)N[C@@H](CCc2ccc(C(F)(F)F)c(Cl)c2)C(=O)N2C[C@H](OCC)C[C@H]2C(=O)NC2(CCC2)C(=O)N(C)[C@@H](C2CCCC2)C(=O)N(C)[C@H](C(=O)N(C)CC)CC(=O)N1C [PP2841] | A (a compound having 10 or more and less than 20 is denoted as A) | A (a compound having 10 or more and less than 20 is denoted as A) |
| CCO[C@@H]1C[C@H]2C(=O)NC3(CCC3)C(=O)N(C)[C@@H](C3CCCC3)C(=O)N(C)[C@H](C(=O)N(C)CC)CC(=O)N(C)[C@@H](CC(C)C)C(=O)N[C@@H]([C@@H](C)CC)C(=O)N(C)CC(=O)N(C)[C@H]3C/C=C\CCN(C3=O)[C@@H](Cc3ccc(C(F)(F)F)cc3)C(=O)N(C)CC(=O)N[C@@H](CCc3ccc(Cl)c(Cl)c3)C(=O)N2C1 [PP2845] | A (a compound having 10 or more and less than 20 is denoted as A) | AA (a compound having 20 or more is denoted as AA) |
| CCO[C@@H]1C[C@H]2C(=O)NC3(CCC3)C(=O)N(C)[C@@H](C3CCCC3)C(=O)N(C)[C@H](C(=O)N(C)CC)CC(=O)N(C)[C@@H](CC(C)C)C(=O)N[C@@H]([C@@H](C)CC)C(=O)N(C)CC(=O)N(C)[C@H]3C/C=C\CCN(C3=O)[C@@H](Cc3ccc(C(F)(F)F)cc3)C(=O)N(C)CC(=O)N[C@@H](CCc3ccc(C(F)(F)F)c(Cl)c3)C(=O)N2C1 [PP2847] | A (a compound having 10 or more and less than 20 is denoted as A) | A (a compound having 10 or more and less than 20 is denoted as A) |
| CCC[C@H]1C(=O)N[C@@H]([C@@H](C)CC)C(=O)N(C)CC(=O)N(C)[C@H]2C/C=C\CCN(C2=O)[C@@H](Cc2ccc(C(F)(F)F)cc2)C(=O)N(C)CC(=O)N[C@@H](CCc2ccc(C(F)(F)F)c(C3CC3)c2)C(=O)N2C[C@H](OCC)C[C@H]2C(=O)NC2(CC(C)(C)C2)C(=O)N(C)[C@@H](C2CCCC2)C(=O)N(C)[C@H](C(=O)N(C)C)CC(=O)N1C [PP2852] | B (a compound having 3 or more and less than 10 is denoted as B) | B (a compound having 3 or more and less than 10 is denoted as B) |
| CCC[C@H]1C(=O)N[C@@H]([C@@H](C)CC)C(=O)N(C)CC(=O)N(C)[C@H]2C/C=C\CCN(C2=O)[C@@H](Cc2ccc(C(F)(F)F)cc2)C(=O)N(C)CC(=O)N[C@@H](CCc2ccc(C3CC3)c(OC)c2)C(=O)N2C[C@H](OCC)C[C@H]2C(=O)NC2(CC(C)(C)C2)C(=O)N(C)[C@@H](C2CCCC2)C(=O)N(C)[C@H](C(=O)N(C)C)CC(=O)N1C [PP2853] | A (a compound having 10 or more and less than 20 is denoted as A) | A (a compound having 10 or more and less than 20 is denoted as A) |
| CCC[C@H]1C(=O)N[C@@H]([C@@H](C)CC)C(=O)N(C)CC(=O)N(C)[C@H]2C/C=C\CCN(C2=O)[C@@H](Cc2ccc(C(F)(F)F)cc2)C(=O)N(C)CC(=O)N[C@@H](CCc2ccc(C3CC3)c(C)c2)C(=O)N2C[C@H](OCC)C[C@H]2C(=O)NC2(CC(C)(C)C2)C(=O)N(C)[C@@H](C2CCCC2)C(=O)N(C)[C@H](C(=O)N(C)C)CC(=O)N1C [PP2855] | A (a compound having 10 or more and less than 20 is denoted as A) | A (a compound having 10 or more and less than 20 is denoted as A) |
| CCC[C@H]1C(=O)N[C@@H]([C@@H](C)CC)C(=O)N(C)CC(=O)N(C)[C@H]2C/C=C\CCN(C2=O)[C@@H](Cc2ccc(C(F)(F)F)cc2)C(=O)N(C)CC(=O)N[C@@H](CCc2ccc(CC)c(F)c2)C(=O)N2C[C@H](OCC)C[C@H]2C(=O)NC2(CC(C)(C)C2)C(=O)N(C)[C@@H](C2CCCC2)C(=O)N(C)[C@H](C(=O)N(C)C)CC(=O)N1C [PP2856] | A (a compound having 10 or more and less than 20 is denoted as A) | A (a compound having 10 or more and less than 20 is denoted as A) |
| CCC[C@H]1C(=O)N[C@@H]([C@@H](C)CC)C(=O)N(C)CC(=O)N(C)[C@H]2C/C=C\CCN(C2=O)[C@@H](Cc2ccc(C(F)(F)F)cc2)C(=O)N(C)CC(=O)N[C@@H](CCc2cc(C)c(C(F)F)c(C)c2)C(=O)N2C[C@H](OCC)C[C@H]2C(=O)NC2(CC(C)(C)C2)C(=O)N(C)[C@@H](C2CCCC2)C(=O)N(C)[C@H](C(=O)N(C)C)CC(=O)N1C [PP2857] | A (a compound having 10 or more and less than 20 is denoted as A) | A (a compound having 10 or more and less than 20 is denoted as A) |
| CCC[C@H]1C(=O)N[C@@H]([C@@H](C)CC)C(=O)N(C)CC(=O)N(C)[C@H]2C/C=C\CCN(C2=O)[C@@H](Cc2ccc(C(F)(F)F)cc2)C(=O)N(C)CC(=O)N[C@@H](CCc2ccc(C3CC3)c(Cl)c2)C(=O)N2C[C@H](OCC)C[C@H]2C(=O)NC2(CC(C)(C)C2)C(=O)N(C)[C@@H](C2CCCC2)C(=O)N(C)[C@H](C(=O)N(C)C)CC(=O)N1C [PP2858] | B (a compound having 3 or more and less than 10 is denoted as B) | A (a compound having 10 or more and less than 20 is denoted as A) |
| CCC[C@H]1C(=O)N[C@@H]([C@@H](C)CC)C(=O)N(C)CC(=O)N(C)[C@H]2C/C=C\CCN(C2=O)[C@@H](Cc2ccc(C(F)(F)F)cc2)C(=O)N(C)CC(=O)N[C@@H](CCc2cc(Cl)c(C(F)(F)F)c(Cl)c2)C(=O)N2C[C@H](OCC)C[C@H]2C(=O)NC2(CC(C)(C)C2)C(=O)N(C)[C@@H](C2CCCC2)C(=O)N(C)[C@H](C(=O)N(C)C)CC(=O)N1C [PP2859] | A (a compound having 10 or more and less than 20 is denoted as A) | A (a compound having 10 or more and less than 20 is denoted as A) |
| CCC[C@H]1C(=O)N[C@@H]([C@@H](C)CC)C(=O)N(C)CC(=O)N(C)[C@H]2C/C=C\CCN(C2=O)[C@@H](Cc2ccc(C(F)(F)F)cc2)C(=O)N(C)CC(=O)N[C@@H](CCc2cc(C)c(C(F)F)c(F)c2)C(=O)N2C[C@H](OCC)C[C@H]2C(=O)NC2(CC(C)(C)C2)C(=O)N(C)[C@@H](C2CCCC2)C(=O)N(C)[C@H](C(=O)N(C)C)CC(=O)N1C [PP2860] | A (a compound having 10 or more and less than 20 is denoted as A) | A (a compound having 10 or more and less than 20 is denoted as A) |
| CCC[C@H]1C(=O)N[C@@H]([C@@H](C)CC)C(=O)N(C)CC(=O)N(C)[C@H]2C/C=C\CCN(C2=O)[C@@H](Cc2ccc(C(F)(F)F)cc2)C(=O)N(C)CC(=O)N[C@@H](CCc2ccc(C(F)(F)F)c(CC)c2)C(=O)N2C[C@H](OCC)C[C@H]2C(=O)NC2(CC(C)(C)C2)C(=O)N(C)[C@@H](C2CCCC2)C(=O)N(C)[C@H](C(=O)N(C)C)CC(=O)N1C [PP2861] | B (a compound having 3 or more and less than 10 is denoted as B) | A (a compound having 10 or more and less than 20 is denoted as A) |
